PubChem BioAssay AID330 (DTP/NCI, 2004)
Where “and” joins values, the source holds several entries; their conditions need not be identical. Equal values may be shown once. Inconclusive results and toxic doses are left out.

Tested on: P388 leukemia ip, CD2F1 mice, survival T/C
Assay: NCI In Vivo Anticancer Drug Screen. Data for tumor model P388 Leukemia (intraperitoneal) in CD2F1 (CDF1) mice
Conditions: endpoint: median survival time, higher = longer survival
In short: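 Mice carrying the transplanted tumor received test compound or vehicle. Survival was recorded in each group, and the value is the treated-group measurement divided by that of the vehicle-treated control group.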

[1] = dose: 50.0 mg/kg/injection, schedule: Q01DX005 (ip), vehicle: saline with Tween-80
[2] = dose: 100.0 mg/kg/injection, schedule: Q01DX005 (ip), vehicle: saline with Tween-80
[3] = dose: 200.0 mg/kg/injection, schedule: Q01DX005 (ip), vehicle: saline with Tween-80

Compound: O=C1c2ccc(=O)[nH]c2C(=O)C2CC3=C(CCCC3)CC12 (centres undefined)
- T/C [1]: 109 % of control
- T/C [2]: 97 % of control
- T/C [3]: 94 % of control

Compound: CC(O)CCC(=O)c1ccoc1 (centres undefined)
- T/C (dose: 1.87 mg/kg/injection, schedule: Q01DX005 (ip), vehicle: saline): 97 % of control
- T/C (dose: 3.75 mg/kg/injection, schedule: Q01DX005 (ip), vehicle: saline): 100 % of control
- T/C (dose: 7.5 mg/kg/injection, schedule: Q01DX005 (ip), vehicle: saline): 100 % of control and 96 % of control
- T/C (dose: 15.0 mg/kg/injection, schedule: Q01DX005 (ip), vehicle: saline): 100 % of control and 93 % of control
- T/C (dose: 30.0 mg/kg/injection, schedule: Q01DX005 (ip), vehicle: saline): 109 % of control

Compound: COc1ccc(C2CC(=O)C=C3c4ccc(OC)cc4CCC32)cc1 (centres undefined)
- T/C (dose: 50.0 mg/kg/injection, schedule: Q01DX009 (ip), vehicle: Klucel (hydroxypropylcellulose) (HPC)): 91 % of control
- T/C (dose: 100.0 mg/kg/injection, schedule: Q01DX009 (ip), vehicle: Klucel (hydroxypropylcellulose) (HPC)): 91 % of control

Compound: CC(C)N1CCSC1=S
- T/C (dose: 50.0 mg/kg/injection, schedule: Q01DX009 (ip), vehicle: saline with Tween-80): 104 % of control
- T/C (dose: 100.0 mg/kg/injection, schedule: Q01DX009 (ip), vehicle: saline with Tween-80): 90 % of control
- T/C (dose: 200.0 mg/kg/injection, schedule: Q01DX009 (ip), vehicle: saline with Tween-80): 100 % of control

Compound: Cc1nc2ccccc2n(CC2CCCN3CCCC[C@H]23)c1=O (some centres undefined)
- T/C [1]: 97 % of control
- T/C [2]: 101 % of control

Compound: CN(C)N=Nc1ccc(NC(N)=O)cc1
- T/C (dose: 100.0 mg/kg/injection, schedule: Q04DX003 (ip), vehicle: saline + Tween-80 + alcohol): 154 % of control

Compound: COc1cccc2c1C(=O)c1c(O)c3c(c(O)c1C2=O)CC(O)(C(C)=O)CC3OC1CC(NC2CCOCC2)C(O)C(C)O1 (centres undefined)
- T/C (dose: 3.12 mg/kg/injection, schedule: Q04DX003 (ip), vehicle: water): 101 % of control
- T/C (dose: 6.25 mg/kg/injection, schedule: Q04DX003 (ip), vehicle: water): 101 % of control and 107 % of control
- T/C (dose: 12.5 mg/kg/injection, schedule: Q04DX003 (ip), vehicle: water): 102 % of control and 107 % of control
- T/C (dose: 25.0 mg/kg/injection, schedule: Q04DX003 (ip), vehicle: water): 118 % of control
- T/C (dose: 50.0 mg/kg/injection, schedule: Q04DX003 (ip), vehicle: water): 120 % of control
- T/C (dose: 200.0 mg/kg/injection, schedule: Q04DX003 (ip), vehicle: water): 111 % of control

Compound: CC(=O)C(C)(C)Cc1cc(C(C)(C)CC=O)on1
- T/C (dose: 60.0 mg/kg/injection, schedule: Q01DX005 (ip), vehicle: saline with Tween-80): 107 % of control
- T/C (dose: 120.0 mg/kg/injection, schedule: Q01DX005 (ip), vehicle: saline with Tween-80): 100 % of control
- T/C (dose: 240.0 mg/kg/injection, schedule: Q01DX005 (ip), vehicle: saline with Tween-80): 108 % of control

Compound: COc1cc(C(=O)C(C=O)c2ccccc2)c([N+](=O)[O-])cc1OC (centres undefined)
- T/C (dose: 50.0 mg/kg/injection, schedule: Q01DX005 (ip), vehicle: Klucel (hydroxypropylcellulose) (HPC)): 94 % of control
- T/C (dose: 100.0 mg/kg/injection, schedule: Q01DX005 (ip), vehicle: Klucel (hydroxypropylcellulose) (HPC)): 98 % of control
- T/C (dose: 200.0 mg/kg/injection, schedule: Q01DX005 (ip), vehicle: Klucel (hydroxypropylcellulose) (HPC)): 92 % of control

Compound: O[C@H](c1cc(C(F)(F)F)nc2c(C(F)(F)F)cccc12)[C@@H]1CCCCN1
- T/C (dose: 3.13 mg/kg/injection, schedule: Q01DX009 (ip), vehicle: saline with Tween-80): 109 % of control
- T/C (dose: 6.25 mg/kg/injection, schedule: Q01DX009 (ip), vehicle: saline with Tween-80): 102 % of control
- T/C (dose: 12.5 mg/kg/injection, schedule: Q01DX009 (ip), vehicle: saline with Tween-80): 116 % of control
- T/C (dose: 25.0 mg/kg/injection, schedule: Q01DX009 (ip), vehicle: saline with Tween-80): 106 % of control

Compound: CCc1ccc2c(c1)C(O)(c1ccccc1)c1c(c(-c3ccccc3)c3ccccc3c1-c1ccccc1)C2(O)c1ccccc1 (centres undefined)
- T/C [1]: 92 % of control
- T/C [2]: 89 % of control
- T/C [3]: 89 % of control

Compound: NC(Cc1ccc(OC(c2ccccc2)(c2ccccc2)c2ccccc2)cc1)C(=O)O (centres undefined)
- T/C (dose: 50.0 mg/kg/injection, schedule: Q01DX009 (ip), vehicle: saline): 101 % of control
- T/C (dose: 100.0 mg/kg/injection, schedule: Q01DX009 (ip), vehicle: saline): 96 % of control
- T/C (dose: 200.0 mg/kg/injection, schedule: Q01DX009 (ip), vehicle: saline): 90 % of control

Compound: O=C1c2ccccc2C(=O)N1CC[P+](c1ccc(Cl)cc1)(c1ccc(Cl)cc1)c1ccc(Cl)cc1
- T/C (dose: 25.0 mg/kg/injection, schedule: Q01DX009 (ip), vehicle: other): 95 % of control
